The results in this text go back to US20210053957A1, “HERBICIDAL COMPOUNDS” (SYNGENTA PARTICIPATIONS AG, priority 2018, published 2021).

Holding throughout (experiment): Post-emergence efficacy, glasshouse spray test
Format in all cases: in vivo

For experiment [1], the system named is Amaranthus palmeri (AMAPA). Conditions: Application Rate 500 g/Ha, evaluated after 13 days; for pest or weed control at 500 g/ha: Amaranthus palmeri, post-emergence, 312 h, read-out: Control of weed species after post-emergence application, AMAPA (100=total damage to plant; 0=no damage to plant). Put shortly: (§1)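 Visual damage rating (0 = no damage, 100 = total damage) taken 13 days after a post-emergence spray. Plants had grown 14 days in pots under 24/16° C, 14 h light, 65% humidity before treatment.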

In experiment [2] the test system is Chenopodium album (CHEAL). Conditions: Application Rate 500 g/Ha, evaluated after 13 days; for pest or weed control at 500 g/ha: Chenopodium album, post-emergence, 312 h, read-out: Control of weed species after post-emergence application, CHEAL (100=total damage to plant; 0=no damage to plant). Put shortly: as §1
For experiment [3], the system named is Digitaria sanguinalis (DIGSA). Conditions: Application Rate 500 g/Ha, evaluated after 13 days; for pest or weed control at 500 g/ha: Digitaria sanguinalis, post-emergence, 312 h, read-out: Control of weed species after post-emergence application, DIGSA (100=total damage to plant; 0=no damage to plant). Put shortly:
as §1

The test system of experiment [4] is Echinochloa crus-galli (ECHCG). Conditions: Application Rate 500 g/Ha, evaluated after 13 days; for pest or weed control at 500 g/ha: Echinochloa crus-galli, post-emergence, 312 h, read-out: Control of weed species after post-emergence application, ECHCG (100=total damage to plant; 0=no damage to plant). Put shortly:
as §1

The subject of experiment [5] is Eleusine indica (ELEIN). Conditions: Application Rate 500 g/Ha, evaluated after 13 days; for pest or weed control at 500 g/ha: Eleusine indica, post-emergence, 312 h, read-out: Control of weed species after post-emergence application, ELEIN (100=total damage to plant; 0=no damage to plant). Put shortly:
as §1

Experiment [6] deals with Euphorbia heterophylla (EPHHL). Conditions: Application Rate 500 g/Ha, evaluated after 13 days; for pest or weed control at 500 g/ha: Euphorbia heterophylla, post-emergence, 312 h, read-out: Control of weed species after post-emergence application, EPHHL (100=total damage to plant; 0=no damage to plant). Put shortly: as §1
Experiment [7] deals with Ipomoea hederacea (IPOHE). Conditions: Application Rate 500 g/Ha, evaluated after 13 days; for pest or weed control at 500 g/ha: Ipomoea hederacea, post-emergence, 312 h, read-out: Control of weed species after post-emergence application, IPOHE (100=total damage to plant; 0=no damage to plant). Put shortly: as §1
Experiment [8] relates to Lolium perenne (LOLPE). Conditions: Application Rate 500 g/Ha, evaluated after 13 days; for pest or weed control at 500 g/ha: Lolium perenne, post-emergence, 312 h, read-out: Control of weed species after post-emergence application, LOLPE (100=total damage to plant; 0=no damage to plant). Put shortly: as §1
Experiment [9] relates to Setaia fabei (SETFA). Conditions: Application Rate 500 g/Ha, evaluated after 13 days; for pest or weed control at 500 g/ha: Setaria faberi, post-emergence, 312 h, read-out: Control of weed species after post-emergence application, SETFA (100=total damage to plant; 0=no damage to plant). Put shortly:
as §1

Consider `Cc1nsc(-c2cc[n+](CCS(=O)(=O)[O-])nc2)n1` [Compound A10], for which the pest or weed control at 500 g/ha in [1] stood at 60%; in [2] it was 80%; in [3], 50%; in experiment [4] it was 30%; in experiment [5] it was 60%; in experiment [6], 60%. Besides, the pest or weed control at 500 g/ha in [7] is 50%; in [8], 60%; in experiment [9] it was 60%.
`Cn1nnc(-c2cc[n+](CCS(=O)(=O)O)nc2)n1` [Compound A11]: the pest or weed control at 500 g/ha in experiment [1] was 100%; in experiment [2] it was 90%; in [3], 90%; in [4], 100%; in experiment [5], 100%; in [6], 100%. For the same molecule, the figures for the pest or weed control at 500 g/ha in experiment [7], in experiment [8] and in [9] were 60%, 80% and 100%, respectively.
Take `Cn1nnnc1-c1cc[n+](CCS(=O)(=O)O)nc1` [Compound A12]: the pest or weed control at 500 g/ha in [1] was determined as 60%; in experiment [2], 30%; in experiment [3] it was 60%; in experiment [4], 30%; in experiment [5] it was 30%; in [6], 20%. Moreover, the pest or weed control at 500 g/ha in [7] is 20%; in [8], 70%; in [9] it was 40%.
As for `Cc1csc(-c2cc[n+](CCS(=O)(=O)[O-])nc2)n1` [Compound A13], the pest or weed control at 500 g/ha in [1] stood at 90%; in experiment [2], 70%; in experiment [3], 30%; in [4], 40%; in experiment [5] it was 80%; in [6] it was 90%. For the same molecule, the figures for the pest or weed control at 500 g/ha in experiment [7], in [8] and in experiment [9] were 40%, 60% and 60%, respectively.
Regarding `Cc1nc(-c2cc[n+](CCS(=O)(=O)[O-])nc2)oc1C` [Compound A14], the pest or weed control at 500 g/ha was determined as 100% in experiment [1]; 40% in [2]; 50% in [3]; 40% in [4]; 70% in experiment [5]; 50% in experiment [6]. The pest or weed control at 500 g/ha came out at 40% in [7], 40% in [8] and 50% in experiment [9].
Take `Cc1cnc(-c2cc[n+](CCC(=O)O)nc2)o1` [Compound A15, 3-[4-(5-methyloxazol-2-yl)pyridazin-1-ium-1-yl]propanoic acid; 2,2,2-trifluoroacetate]: the pest or weed control at 500 g/ha amounted to 100% in [1]; 80% in [2]; 80% in experiment [3]; 80% in experiment [4]; 100% in experiment [5]; 100% in [6]. Besides, the values for the pest or weed control at 500 g/ha in [7], in experiment [8] and in [9] were 30%, 60% and 70%, respectively.
In the case of `Cn1ncnc1-c1cc[n+](CCS(=O)(=O)[O-])nc1` [Compound A16], the pest or weed control at 500 g/ha in [1] stood at 100%; in [2], 100%; in experiment [3] it was 70%; in experiment [4] it was 80%; in experiment [5] it was 80%; in experiment [6], 90%. Moreover, the results for the pest or weed control at 500 g/ha in [7], in experiment [8] and in experiment [9] were 80%, 90% and 80%, respectively.
For `Cc1nc(-c2cc[n+](CCS(=O)(=O)[O-])nc2)sc1C` [Compound A17], the pest or weed control at 500 g/ha came out at 30% in experiment [1]; 30% in experiment [2]; 50% in experiment [3]; 40% in [4]; 60% in experiment [5]; 40% in experiment [6]. Moreover, the figures for the pest or weed control at 500 g/ha in experiment [7], in experiment [8] and in [9] were 30%, 50% and 50%, respectively.
`O=S(=O)([O-])CC[n+]1ccc(-c2nc(C(F)(F)F)cs2)cn1` [Compound A18]: the pest or weed control at 500 g/ha in experiment [1] is 90%; in experiment [2], 10%; in experiment [3], 30%; in experiment [4], 30%; in experiment [5] it was 30%; in experiment [6], 50%. Also, the pest or weed control at 500 g/ha in experiment [7] turned out to be 30%; in experiment [8] it was 40%; in [9], 40%.
Regarding `O=S(=O)([O-])CC[n+]1ccc(-c2ncco2)cn1` [Compound A19], the pest or weed control at 500 g/ha in experiment [1] came to 40%; in experiment [2], 100%; in experiment [3] it was 70%; in experiment [4], 80%; in experiment [5], 100%; in experiment [6], 100%. The values for the pest or weed control at 500 g/ha in experiment [7], in experiment [8] and in experiment [9] were 70%, 90% and 60%, respectively.
As to `CCOC(=O)CC[n+]1ccc(-c2cocn2)cn1` [Compound A20], the pest or weed control at 500 g/ha came out at 40% in experiment [1]; 20% in [2]; 60% in [3]; 30% in experiment [4]; 50% in experiment [5]; 10% in experiment [6]. Further, the pest or weed control at 500 g/ha is 10% in experiment [7], 10% in experiment [8] and 20% in [9].
On to `CC(C)(C)COS(=O)(=O)CC[n+]1ccc(-c2cocn2)cn1` [Compound A21, 2,2-dimethylpropyl 2-(4-oxazol-4-ylpyridazin-1-ium-1-yl)ethanesulfonate; 2,2,2-trifluoroacetate], for which the pest or weed control at 500 g/ha was 10% in [1]; 40% in experiment [2]; 10% in experiment [3]; 10% in experiment [4]; 10% in [5]; 40% in experiment [6]. Also, the pest or weed control at 500 g/ha in experiment [7] was 10%; in experiment [8], 0%; in experiment [9], 10%.
For the molecule `O=S(=O)([O-])CC[n+]1ccc(-c2cocn2)cn1` [Compound A22, 2-(4-oxazol-4-ylpyridazin-1-ium-1-yl)ethanesulfonate], the pest or weed control at 500 g/ha in experiment [1] amounted to 30%; in experiment [2] it was 20%; in [3], 20%; in [4], 20%; in experiment [5], 20%; in experiment [6], 30%. For the same molecule, the pest or weed control at 500 g/ha turned out to be 10% in experiment [7], 10% in [8] and 20% in [9].
As for `CC(C)c1csc(-c2cc[n+](CCS(=O)(=O)O)nc2)n1` [Compound A23], in experiment [1], the “Control of weed species after post-emergence application, AMAPA (100=total damage to plant; 0=no damage to plant)” value was 50. In experiment [2], the “Control of weed species after post-emergence application, CHEAL (100=total damage to plant; 0=no damage to plant)” value is 10. In [3], the “Control of weed species after post-emergence application, DIGSA (100=total damage to plant; 0=no damage to plant)” value came to 50. Also, the “Control of weed species after post-emergence application, ECHCG (100=total damage to plant; 0=no damage to plant)” value in [4] was 30. The “Control of weed species after post-emergence application, ELEIN (100=total damage to plant; 0=no damage to plant)” value in [5] is listed as 60. The “Control of weed species after post-emergence application, EPHHL (100=total damage to plant; 0=no damage to plant)” value in [6] came to 70. In addition, the “Control of weed species after post-emergence application, IPOHE (100=total damage to plant; 0=no damage to plant)” value in experiment [7] was 30. In [8], the “Control of weed species after post-emergence application, LOLPE (100=total damage to plant; 0=no damage to plant)” value is reported as 40. For the same molecule, in experiment [9], the “Control of weed species after post-emergence application, SETFA (100=total damage to plant; 0=no damage to plant)” value was found to be 40.
